Source: ChEMBL document CHEMBL4393688, “Synthesis, in vitro and in vivo characterization of new benzoxazole and benzothiazole-based sigma receptor ligands” (Eur J Med Chem, 2019)
Active and inactive are the calls of the source. No cut-off for these calls is given here.

How the values were obtained:
[1] = target: Sigma non-opioid intracellular receptor 1 (Cavia porcellus, UniProt Q60492); assay: Displacement of [3H]-(+)-pentazocine from sigma1 receptor in guinea pig brain membranes incubated for 150 mins by scintillation counting method; format: cell membranes
[2] = target: Sigma intracellular receptor 2 (Homo sapiens, UniProt Q5BJF2); assay: Displacement of [3H]-DTG from sigma2 receptor (unknown origin) incubated for 120 mins by scintillation counting method
[3] = Selectivity ratio of Ki for sigma2 receptor (unknown origin) to Ki for sigma1 receptor in guinea pig brain cortex membranes; format: cell membranes
MCF7 [4] = assay: Induction of apoptosis in human MCF7 cells assessed as increase in caspase-3 activity at 20 uM incubated for 24 hrs by Ac-DEVD-pNA substrate-based colorimetric assay; format: functional, cell-based
MCF7 [5] = assay: Cytotoxicity against human MCF7 cells assessed as reduction in cell viability incubated for 24 hrs by MTT assay; format: functional, cell-based; conditions: MCF7, 24 h
Mus musculus [6] = assay: Analgesic activity in formalin-induced nociception mouse model assessed as decrease in time spent on licking or flinching formalin injected right hind paw during early nociceptive phase at 2.5 to 5 mg/kg, ip administered 15 mins prior to formalin challenge measured at 5 mins interval for 10 mins; format: functional, organism-based
Mus musculus [7] = assay: Analgesic activity in formalin-induced nociception mouse model assessed as decrease in time spent on licking or flinching formalin injected right hind paw during inflammatory phase at 2.5 to 5 mg/kg, ip administered 15 mins prior to formalin challenge measured at 5 mins interval for 10 to 60 mins; format: functional, organism-based

Sequence of Sigma intracellular receptor 2 (Q5BJF2 whole entry): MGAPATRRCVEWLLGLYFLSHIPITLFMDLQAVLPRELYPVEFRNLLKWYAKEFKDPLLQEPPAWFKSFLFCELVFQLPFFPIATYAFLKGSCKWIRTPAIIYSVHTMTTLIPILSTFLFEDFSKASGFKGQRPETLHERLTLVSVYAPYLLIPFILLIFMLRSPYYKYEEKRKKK
Sequence of Sigma non-opioid intracellular receptor 1 (Q60492 whole entry): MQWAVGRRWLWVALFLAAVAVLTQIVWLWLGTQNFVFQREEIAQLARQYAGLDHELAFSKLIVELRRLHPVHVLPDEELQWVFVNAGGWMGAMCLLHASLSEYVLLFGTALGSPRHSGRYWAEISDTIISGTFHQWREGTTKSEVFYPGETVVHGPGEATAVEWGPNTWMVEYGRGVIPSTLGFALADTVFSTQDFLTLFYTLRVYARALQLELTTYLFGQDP

Compound: Clc1ccc2oc(SCCCCN3CCCCCC3)nc2c1
- Ki [1]: 2.4 nM
- Ki [2]: 11 nM
- Ratio Ki [3]: 4.6

Compound: O=c1sc2ccc(Cl)cc2n1CCCCN1CCCCCC1
- Activity (MCF7 [4]): Active
- Ki [1]: 0.78 nM
- Ki [2]: 7.61 nM
- Ratio Ki [3]: 9.7
- IC50 (MCF7 [5]): 27.8 µM
- Activity (Mus musculus [6]): inactive
- Activity (Mus musculus [7]): Active

Compound: O=c1sc2ccc(Cl)cc2n1CCCN1CCCCCC1
- Ki [1]: 7.4 nM
- Ki [2]: 68.8 nM
- Ratio Ki [3]: 9.3

Compound: CC[C@H]1C[C@@H]2C[C@H]3c4[nH]c5ccc(OC)cc5c4CC[N@@](C2)[C@@H]13
- Activity (MCF7 [4]): Active
- IC50 (MCF7 [5]): 29.6 µM

Compound: Clc1ccc2sc(SCCN3CCCCCC3)nc2c1
- Ki [1]: 407 nM
- Ki [2]: > 1000 nM
- Ratio Ki [3]: > 2.4

Compound: Clc1ccc2sc(SCCCCN3CCCCCC3)nc2c1
- Ki [1]: 8.44 nM
- Ki [2]: 21.8 nM
- Ratio Ki [3]: 2.6

Compound: O=c1oc2ccc(Cl)cc2n1CCN1CCCCCC1
- Ki [1]: 99 nM
- Ki [2]: 652 nM
- Ratio Ki [3]: 6.6

Compound: O=C(CCCN1CCC(O)(c2ccc(Cl)cc2)CC1)c1ccc(F)cc1 [HALOPERIDOL]
- Activity (MCF7 [4]): Active
- IC50 (MCF7 [5]): 20.2 µM

Compound: O=c1oc2ccc(Cl)cc2n1CCCCN1CCCCCC1
- Activity (MCF7 [4]): Active
- Ki [1]: 2.3 nM
- Ki [2]: 3.8 nM
- Ratio Ki [3]: 1.6
- IC50 (MCF7 [5]): 44.8 µM
- Activity (Mus musculus [6]): Active
- Activity (Mus musculus [7]): Active

Compound: O=c1sc2ccc(Cl)cc2n1CCN1CCCCCC1
- Ki [1]: 180 nM
- Ki [2]: 1670 nM
- Ratio Ki [3]: 9.3

Compound: Clc1ccc2oc(SCCN3CCCCCC3)nc2c1
- Ki [1]: 1.93 nM
- Ki [2]: 87 nM
- Ratio Ki [3]: 45

Compound: Clc1ccc2sc(SCCCN3CCCCCC3)nc2c1
- Activity (MCF7 [4]): Active
- Ki [1]: 1.27 nM
- Ki [2]: 7.9 nM
- Ratio Ki [3]: 6.8
- IC50 (MCF7 [5]): 20.5 µM
- Activity (Mus musculus [6]): inactive
- Activity (Mus musculus [7]): inactive

Compound: Clc1ccc2oc(SCCCN3CCCCCC3)nc2c1
- Ki [1]: 2.35 nM
- Ki [2]: 16 nM
- Ratio Ki [3]: 6.2

Compound: O=c1oc2ccc(Cl)cc2n1CCCN1CCCCCC1
- Ki [1]: 6.3 nM
- Ki [2]: 64.1 nM
- Ratio Ki [3]: 10.2
